Experimental data: ChEMBL document CHEMBL6153078, “Design, synthesis, and biological evaluation of imidazolidinone derivatives as potent PPARα/δ agonists for the treatment of cholestatic liver diseases” (Eur J Med Chem, 2025)

Legend:
Type in all cases: cell-based
[1] = molecular target: T1, Peroxisome proliferator-activated receptor alpha (Homo sapiens, UniProt Q07869); assay: Agonist activity at GAL4-fused human PPAR-alpha transfected in African green monkey COS7 cells assessed transcriptional activation incubated for 16 hrs by Luciferase assay
T1 sequence (Q07869 whole entry): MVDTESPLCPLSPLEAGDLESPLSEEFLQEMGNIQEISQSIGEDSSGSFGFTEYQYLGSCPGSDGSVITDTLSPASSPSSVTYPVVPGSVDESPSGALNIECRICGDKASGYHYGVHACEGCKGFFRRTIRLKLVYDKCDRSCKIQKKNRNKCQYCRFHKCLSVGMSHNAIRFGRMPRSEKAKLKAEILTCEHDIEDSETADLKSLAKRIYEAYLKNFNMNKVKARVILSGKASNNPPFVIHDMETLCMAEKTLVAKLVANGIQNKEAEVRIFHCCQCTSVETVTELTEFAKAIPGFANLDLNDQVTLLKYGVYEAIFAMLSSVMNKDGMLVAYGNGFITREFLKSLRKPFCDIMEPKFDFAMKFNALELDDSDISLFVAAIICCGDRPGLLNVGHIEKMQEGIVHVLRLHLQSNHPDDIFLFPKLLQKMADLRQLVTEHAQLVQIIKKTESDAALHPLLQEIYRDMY

[2] = molecular target: T2, Peroxisome proliferator-activated receptor gamma (Homo sapiens, UniProt P37231); assay: Agonist activity at GAL4-fused human PPAR-gamma transfected in African green monkey COS7 cells assessed transcriptional activation incubated for 16 hrs by Luciferase assay
T2 sequence (P37231 whole entry): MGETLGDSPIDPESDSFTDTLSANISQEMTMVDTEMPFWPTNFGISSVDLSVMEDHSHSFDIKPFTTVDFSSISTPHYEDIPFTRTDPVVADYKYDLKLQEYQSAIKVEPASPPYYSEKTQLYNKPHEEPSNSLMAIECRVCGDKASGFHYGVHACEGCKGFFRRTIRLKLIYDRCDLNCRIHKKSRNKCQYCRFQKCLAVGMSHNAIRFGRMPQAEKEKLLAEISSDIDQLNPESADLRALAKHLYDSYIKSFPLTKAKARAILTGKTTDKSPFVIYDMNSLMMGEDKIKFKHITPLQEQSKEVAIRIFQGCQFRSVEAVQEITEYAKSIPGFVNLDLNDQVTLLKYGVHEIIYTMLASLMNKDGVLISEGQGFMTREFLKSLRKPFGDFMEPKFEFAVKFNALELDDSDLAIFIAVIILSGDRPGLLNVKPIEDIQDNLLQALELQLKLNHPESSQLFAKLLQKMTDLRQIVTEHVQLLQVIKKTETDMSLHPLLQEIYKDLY

[3] = molecular target: T3, Peroxisome proliferator-activated receptor delta (Homo sapiens, UniProt Q03181); assay: Agonist activity at GAL4-fused human PPAR-delta transfected in African green monkey COS7 cells assessed transcriptional activation incubated for 16 hrs by Luciferase assay
T3 sequence (Q03181 whole entry): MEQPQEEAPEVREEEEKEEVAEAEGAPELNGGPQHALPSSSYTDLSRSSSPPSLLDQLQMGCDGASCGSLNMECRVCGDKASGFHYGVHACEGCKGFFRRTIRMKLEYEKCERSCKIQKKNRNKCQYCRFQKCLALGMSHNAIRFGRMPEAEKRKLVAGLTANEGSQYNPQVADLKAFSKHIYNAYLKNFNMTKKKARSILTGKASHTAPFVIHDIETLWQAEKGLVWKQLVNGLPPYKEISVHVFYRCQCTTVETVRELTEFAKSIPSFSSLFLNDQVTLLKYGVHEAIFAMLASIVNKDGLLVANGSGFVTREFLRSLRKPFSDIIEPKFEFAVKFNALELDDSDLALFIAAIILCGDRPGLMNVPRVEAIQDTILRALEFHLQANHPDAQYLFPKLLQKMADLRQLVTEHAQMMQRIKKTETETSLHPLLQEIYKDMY

## Cc1cc(Cn2ncn(-c3ccc(OC(F)(F)F)cc3)c2=O)cc(C)c1OC(C)(C)C(=O)O
[1]
  EC50: 8.5 nM

## Cc1cc(CN2CCN(c3ccc(F)cc3)C2=O)cc(C)c1OC(C)(C)C(=O)O
[2]
  EC50: 2130 nM
[3]
  EC50: 39 nM
[1]
  EC50: 89.5 nM

## Cc1cc(CN2CCN(c3cccc(C(F)(F)F)c3)C2=O)cc(C)c1OC(C)(C)C(=O)O
[2]
  EC50: 884 nM
[3]
  EC50: 40.9 nM
[1]
  EC50: 14.2 nM

## CCc1ccc(N2CCN(Cc3cc(C)c(OC(C)(C)C(=O)O)c(C)c3)C2=O)cc1
[2]
  EC50: 1290 nM
[1]
  EC50: 7.3 nM

## CC(C)(Oc1ccc(CN2CCN(c3ccc(C(F)(F)F)cc3)C2=O)cc1)C(=O)O
[2]
  EC50: > 5000 nM

## COc1ccc(N2CCN(Cc3cc(C)c(OC(C)(C)C(=O)O)c(C)c3)C2=O)cc1
[2]
  EC50: 2580 nM
[3]
  EC50: 263 nM
[1]
  EC50: 121 nM

## Cc1cc(CN2CCN(c3ccc(Cl)cc3)C2=O)cc(C)c1OC(C)(C)C(=O)O
[1]
  EC50: 1020 nM

## Cc1cc(CN2CCN(c3ccccc3C(F)(F)F)C2=O)cc(C)c1OC(C)(C)C(=O)O
[3]
  EC50: > 5000 nM
[1]
  EC50: > 5000 nM

## Cc1cc(CN2CCN(c3ccc(OC(F)(F)F)cc3)C2=O)cc(C)c1OC(C)(C)C(=O)O
[2]
  EC50: 416 nM
[3]
  EC50: 36.9 nM
[1]
  EC50: 4.7 nM

## Cc1cc(CN2CCN(c3ccc(C(C)C)cc3)C2=O)cc(C)c1OC(C)(C)C(=O)O
[3]
  EC50: 69.6 nM

## Cc1ccc(N2CCN(Cc3cc(C)c(OC(C)(C)C(=O)O)c(C)c3)C2=O)cc1
[2]
  EC50: 1200 nM
[1]
  EC50: 40.4 nM

## Cc1cc(CN2CCN(c3ccccc3)C2=O)cc(C)c1OC(C)(C)C(=O)O
[3]
  EC50: 260 nM
[1]
  EC50: 436 nM

## Cc1cc(CN2CCN(c3ccc(C(C)(C)C)cc3)C2=O)cc(C)c1OC(C)(C)C(=O)O
[3]
  EC50: > 5000 nM

## Cc1cc(CN2CCN(c3ccc(C(F)(F)F)cc3)C2=O)ccc1OC(C)(C)C(=O)O
[2]
  EC50: > 5000 nM
[1]
  EC50: 175 nM

## CSc1ccc(C(=O)/C=C/c2cc(C)c(OC(C)(C)C(=O)O)c(C)c2)cc1 [ELAFIBRANOR]
[2]
  EC50: 1570 nM
[1]
  EC50: 888 nM
